Like-named read-outs stand apart in the source and are kept apart here. Blank lines part the entries; values can stand above or below the compound they belong to.
Target: T1, human Nav1.8/b3 (Homo sapiens, UniProt Q9Y5Y9)
T1 construct: expressed in transfected cells; host or cells: CHO
Experiment: Compound Profiling Human NaV1.8/β3 Cell Line—SyncroPatch384PE Assay (automated patch clamp, stably transfected CHO cells)
Type: cell-based
Settings: Nav1.8/b3 CHO cells

[1] = P1 (IC50, resting state block), P1 measurement, resting state block, holding potential −120 mV, third set of compounds
[2] = P2 (IC50, inactivated state block), P2 measurement, inactivated state block, inactivation step −35 mV 10 sec, third set of compounds
[3] = P1 (IC50, resting state block), P1 measurement, resting state block, holding potential −120 mV, fourth set of compounds
[4] = P2 (IC50, inactivated state block), P2 measurement, inactivated state block, inactivation step −35 mV 10 sec, fourth set of compounds
[5] = P1 (IC50, resting state block), P1 measurement, resting state block, holding potential −120 mV, first set of compounds
[6] = P2 (IC50, inactivated state block), P2 measurement, inactivated state block, inactivation step −35 mV 10 sec, first set of compounds
[7] = P1 (IC50, resting state block), P1 measurement, resting state block, holding potential −120 mV, second set of compounds
[8] = P2 (IC50, inactivated state block), P2 measurement, inactivated state block, inactivation step −35 mV 10 sec, second set of compounds

T1 sequence (Q9Y5Y9 whole entry): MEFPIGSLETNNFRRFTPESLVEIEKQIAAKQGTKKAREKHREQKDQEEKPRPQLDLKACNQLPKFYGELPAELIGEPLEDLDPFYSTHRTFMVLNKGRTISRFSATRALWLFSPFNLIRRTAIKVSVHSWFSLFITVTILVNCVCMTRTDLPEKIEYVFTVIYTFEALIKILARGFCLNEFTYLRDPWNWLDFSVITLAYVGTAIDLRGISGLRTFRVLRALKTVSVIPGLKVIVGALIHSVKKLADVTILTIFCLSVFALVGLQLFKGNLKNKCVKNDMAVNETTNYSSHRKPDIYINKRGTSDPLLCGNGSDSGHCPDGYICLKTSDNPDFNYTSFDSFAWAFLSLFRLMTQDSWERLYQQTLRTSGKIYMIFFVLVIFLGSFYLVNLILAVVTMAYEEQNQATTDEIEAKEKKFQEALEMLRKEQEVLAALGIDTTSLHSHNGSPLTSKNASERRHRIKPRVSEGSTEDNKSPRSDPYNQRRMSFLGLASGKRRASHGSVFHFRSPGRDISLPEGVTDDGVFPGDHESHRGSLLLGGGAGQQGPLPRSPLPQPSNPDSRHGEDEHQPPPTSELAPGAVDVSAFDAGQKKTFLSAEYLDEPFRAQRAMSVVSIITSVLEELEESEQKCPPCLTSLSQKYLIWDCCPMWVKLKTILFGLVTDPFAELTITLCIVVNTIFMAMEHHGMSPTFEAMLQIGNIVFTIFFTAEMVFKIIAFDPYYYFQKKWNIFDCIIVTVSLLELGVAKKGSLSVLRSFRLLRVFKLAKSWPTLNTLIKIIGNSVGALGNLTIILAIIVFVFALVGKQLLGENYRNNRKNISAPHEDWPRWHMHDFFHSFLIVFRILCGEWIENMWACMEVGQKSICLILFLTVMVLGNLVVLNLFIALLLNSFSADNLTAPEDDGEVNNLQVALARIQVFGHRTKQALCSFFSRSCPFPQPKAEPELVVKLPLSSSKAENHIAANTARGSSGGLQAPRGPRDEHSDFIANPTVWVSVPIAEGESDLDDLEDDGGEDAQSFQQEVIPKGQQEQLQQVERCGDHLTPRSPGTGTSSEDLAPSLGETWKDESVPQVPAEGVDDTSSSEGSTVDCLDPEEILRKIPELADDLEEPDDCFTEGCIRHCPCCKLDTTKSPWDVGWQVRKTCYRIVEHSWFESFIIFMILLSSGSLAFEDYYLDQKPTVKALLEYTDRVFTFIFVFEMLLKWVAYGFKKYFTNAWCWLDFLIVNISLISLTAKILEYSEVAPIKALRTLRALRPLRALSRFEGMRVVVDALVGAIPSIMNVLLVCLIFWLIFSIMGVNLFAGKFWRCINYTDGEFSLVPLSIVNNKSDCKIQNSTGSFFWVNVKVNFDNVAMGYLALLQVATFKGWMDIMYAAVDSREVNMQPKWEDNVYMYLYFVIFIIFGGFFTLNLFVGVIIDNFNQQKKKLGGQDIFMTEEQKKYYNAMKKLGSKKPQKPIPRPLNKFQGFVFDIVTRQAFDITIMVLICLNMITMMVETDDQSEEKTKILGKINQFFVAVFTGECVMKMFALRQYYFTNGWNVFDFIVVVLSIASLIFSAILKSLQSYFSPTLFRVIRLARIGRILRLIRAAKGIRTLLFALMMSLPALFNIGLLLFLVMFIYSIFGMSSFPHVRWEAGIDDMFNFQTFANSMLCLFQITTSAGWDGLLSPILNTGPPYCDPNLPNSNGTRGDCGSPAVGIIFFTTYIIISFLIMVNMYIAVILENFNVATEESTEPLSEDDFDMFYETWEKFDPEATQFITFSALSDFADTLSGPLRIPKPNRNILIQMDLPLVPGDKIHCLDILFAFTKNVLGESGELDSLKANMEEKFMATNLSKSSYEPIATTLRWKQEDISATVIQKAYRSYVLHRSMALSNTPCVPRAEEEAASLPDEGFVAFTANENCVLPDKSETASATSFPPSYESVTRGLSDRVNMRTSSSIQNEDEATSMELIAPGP
T1 sequence (Q9NY72 23-215 partner): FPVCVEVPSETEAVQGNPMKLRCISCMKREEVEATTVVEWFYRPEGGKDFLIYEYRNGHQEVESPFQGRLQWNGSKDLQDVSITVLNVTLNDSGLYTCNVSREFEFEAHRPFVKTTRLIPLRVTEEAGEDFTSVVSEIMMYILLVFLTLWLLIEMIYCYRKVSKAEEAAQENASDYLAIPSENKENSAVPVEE

IC50 [1]: 5 to 50 nM
IC50 [2]: < 5 nM
SMILES: CN=[S@](C)(=O)c1cccc(NC(=O)c2c(Oc3ccc(F)nc3C)ncc(C(F)(F)F)c2C)c1 [Example 33C, (R)—N-(3-(N,S-dimethylsulfonimidoyl)phenyl)-2-((6-fluoro-2-methylpyridin-3-yl)oxy)-4-methyl-5-(trifluoromethyl)nicotinamide]

IC50 [3]: < 5 nM
IC50 [4]: < 5 nM
SMILES: Cc1nc(F)ccc1Oc1ncc(C(F)(F)F)c(C)c1C(=O)Nc1cccc([S@@](C)(=O)=NC(=O)CN2CC(F)(F)C2)c1 [Example 29D, (R)—N-(3-(N-(2-(3,3-difluoroazetidin-1-yl)acetyl)-S-methylsulfonimidoyl)phenyl)-2-((6-fluoro-2-methylpyridin-3-yl)oxy)-4-methyl-5-(trifluoromethyl)nicotinamide]

IC50 [1]: 50 to 100 nM
IC50 [2]: 50 to 100 nM
SMILES: Cc1nc(F)ccc1Oc1ncc(C(C)C)c(C)c1C(=O)Nc1cccc([S@](C)(=N)=O)c1 [Example 104C]

IC50 [1]: 5 to 50 nM
IC50 [2]: 5 to 50 nM
SMILES: Cc1nc(F)ccc1Oc1ncc(-c2ccc(C#N)cc2)c(C)c1C(=O)Nc1cccc([S@](C)(=N)=O)c1 [Example 3C, (R)-5-(4-cyanophenyl)-2-((6-fluoro-2-methylpyridin-3-yl)oxy)-4-methyl-N-(3-(S-methylsulfonimidoyl)phenyl)nicotinamide]

IC50 [5]: > 200 nM
IC50 [6]: > 200 nM
SMILES: Cc1nc(F)ccc1Oc1ccc(-c2cnn(C)c2)c(C)c1C(=O)Nc1cccc([S@](C)(=N)=O)c1 [Example 7A, (R)-6-((6-fluoro-2-methylpyridin-3-yl)oxy)-2-methyl-3-(1-methyl-1H-pyrazol-4-yl)-N-(3-(S-methylsulfonimidoyl)phenyl)benzamide]

IC50 [5]: < 5 nM
IC50 [6]: < 5 nM
SMILES: Cc1nc(F)ccc1Oc1cc(C(F)(F)F)c(Cl)cc1C(=O)Nc1cccc([S@@](C)(=O)=NCCN)c1 [Example 14A, (R)—N-(3-(N-(2-aminoethyl)-S-methylsulfonimidoyl)phenyl)-5-chloro-2-((6-fluoro-2-methylpyridin-3-yl)oxy)-4-(trifluoromethyl)benzamide]

IC50 [1]: 5 to 50 nM
IC50 [2]: 5 to 50 nM
SMILES: COc1cc(C#N)ccc1Oc1ncc(Cl)c(C)c1C(=O)Nc1cccc([S@](C)(=N)=O)c1 [Example 26C, (R)-5-chloro-2-(4-cyano-2-methoxyphenoxy)-4-methyl-N-(3-(S-methylsulfonimidoyl)phenyl)nicotinamide]

IC50 [1]: < 5 nM
IC50 [2]: < 5 nM
SMILES: Cc1nc(F)ccc1Oc1ncc(C(F)(F)F)c(C)c1C(=O)Nc1cccc(S(C)(=N)=N)c1 [Example 40C, ((3-(2-((6-fluoro-2-methylpyridin-3-yl)oxy)-4-methyl-5-(trifluoromethyl)nicotinamido)phenyl)(methyl)-l6-sulfanediylidene)diamine]

IC50 [1]: < 5 nM
IC50 [2]: < 5 nM
SMILES: Cc1nc(F)ccc1Oc1ncc(-c2ccc(F)c(F)c2)c(C)c1C(=O)Nc1cccc([S@](C)(=N)=O)c1 [Example 6C, (R)-5-(3,4-difluorophenyl)-2-((6-fluoro-2-methylpyridin-3-yl)oxy)-4-methyl-N-(3-(S-methylsulfonimidoyl)phenyl)nicotinamide]

IC50 [5]: < 5 nM
IC50 [6]: < 5 nM
SMILES: C[S@@](=N)(=O)c1cc(NC(=O)c2c(Oc3ccc(OC(F)(F)F)cc3)cc(C(F)(F)F)c(Cl)c2F)ccn1 [Example 45A]

IC50 [1]: > 200 nM
IC50 [2]: > 200 nM
SMILES: Cc1nc(F)ccc1Oc1ncc(C(F)F)c(C)c1C(=O)Nc1ccnc([S@@](C)(=N)=O)c1 [Example 114C]

IC50 [1]: > 200 nM
IC50 [2]: > 200 nM
SMILES: Cc1nc(F)ccc1Oc1c(C(F)(F)F)ncc(F)c1C(=O)Nc1cccc([S@](C)(=N)=O)c1 [Example 36C, (R)-5-fluoro-3-((6-fluoro-2-methylpyridin-3-yl)oxy)-N-(3-(S-methylsulfonimidoyl)phenyl)-2-(trifluoromethyl)isonicotinamide]

IC50 [5]: 5 to 50 nM
IC50 [6]: < 5 nM
SMILES: Cc1nc(F)ccc1Oc1cc(C(F)(F)F)c(Cl)cc1C(=O)Nc1ccc(C(N)=O)cc1 [Example 68A]

IC50 [7]: < 5 nM
IC50 [8]: < 5 nM
SMILES: Cc1nc(F)ccc1Oc1cc(C(F)(F)F)c(Cl)cc1C(=O)Nc1cccc([S@@](C)(=O)=NC(=O)[C@@H](C)O)c1 [Example 1B, 5-chloro-2-((6-fluoro-2-methylpyridin-3-yl)oxy)-N-(3-((R)—N—((R)-2-hydroxypropanoyl)-S-methylsulfonimidoyl)phenyl)-4-(trifluoromethyl)benzamide]

IC50 (P1 measurement, resting state block, holding potential −120 mV, first set of compounds, read-out: P1 (IC50, resting state block)): < 5 nM
IC50 (P2 measurement, inactivated state block, inactivation step −35 mV 10 sec, first set of compounds, read-out: P2 (IC50, inactivated state block)): < 5 nM
SMILES: Cc1nc(F)ccc1Oc1cc(C2CC2)c(C(F)(F)F)c(C)c1C(=O)Nc1cccc([S@](C)(=N)=O)c1 [Example 9A, (R)-4-cyclopropyl-6-((6-fluoro-2-methylpyridin-3-yl)oxy)-2-methyl-N-(3-(S-methylsulfonimidoyl)phenyl)-3-(trifluoromethyl)benzamide]

IC50 [5]: 50 to 100 nM
IC50 [6]: 50 to 100 nM
SMILES: Cc1nc(F)ccc1Oc1cc(C(F)(F)F)c(Cl)cc1C(=O)Nc1ccc([S@@](C)(=N)=O)cc1 [Example 48A]

IC50 [1]: 5 to 50 nM
IC50 [2]: 5 to 50 nM
SMILES: Cc1nc(F)ccc1Oc1cnc(C(F)(F)F)c(F)c1C(=O)Nc1cccc([S@](C)(=N)=O)c1 [Example 110C]

IC50 [3]: 5 to 50 nM
IC50 [4]: 5 to 50 nM
SMILES: Cc1nc(F)ccc1Oc1nnc(C(F)(F)F)c(C)c1C(=O)Nc1cccc([S@@](C)(=O)=NC(=O)[C@@H](C)O)c1 [Example 19D, 3-((6-fluoro-2-methylpyridin-3-yl)oxy)-N-(3-((R)—N—((R)-2-hydroxypropanoyl)-S-methylsulfonimidoyl)phenyl)-5-methyl-6-(trifluoromethyl)pyridazine-4-carboxamide]

IC50 [1]: < 5 nM
IC50 [2]: < 5 nM
SMILES: Cc1nc(F)ccc1Oc1ncc(C(F)(F)F)c(C)c1C(=O)Nc1cccc(S(C)(=O)=O)c1 [Example 123C]

IC50 [5]: < 5 nM
IC50 [6]: < 5 nM
SMILES: Cc1nc(F)ccc1Oc1cc(C2CC2)c(C(F)(F)F)c(C)c1C(=O)Nc1ccnc([S@@](C)(=N)=O)c1 [Example 38A]

IC50 [1]: < 5 nM
IC50 [2]: < 5 nM
SMILES: Cc1nc(F)ccc1Oc1nc(C2CC2)c(C(F)(F)F)c(C)c1C(=O)Nc1ccnc([S@](C)(=N)=O)c1 [Example 106C]

IC50 [1]: < 5 nM
IC50 [2]: < 5 nM
SMILES: COc1cc(C#N)ccc1Oc1ncc(-c2ccc(C)cc2)c(C)c1C(=O)Nc1cccc([S@](C)(=N)=O)c1 [Example 21C, (R)-2-(4-cyano-2-methoxyphenoxy)-4-methyl-N-(3-(S-methylsulfonimidoyl)phenyl)-5-(p-tolyl)nicotinamide]

IC50 [5]: < 5 nM
IC50 [6]: < 5 nM
SMILES: Cc1nc(F)ccc1Oc1cc(C2CC2)c(C(F)(F)F)cc1C(=O)Nc1cccc([S@](C)(=N)=O)c1 [Example 67A]

IC50 [7]: < 5 nM
IC50 [8]: < 5 nM
SMILES: CNCC(=O)N=[S@](C)(=O)c1cccc(NC(=O)c2c(Oc3ccc(F)nc3C)ccc(C(F)(F)F)c2F)c1 [Example 17B, (R)-2-fluoro-6-((6-fluoro-2-methylpyridin-3-yl)oxy)-N-(3-(S-methyl-N-(methylglycyl)sulfonimidoyl)phenyl)-3-(trifluoromethyl)benzamide]

IC50 [3]: < 5 nM
IC50 [4]: < 5 nM
SMILES: Cc1nc(F)ccc1Oc1nnc(C(F)(F)F)c(C)c1C(=O)Nc1cccc([S@@](C)(=O)=NC(=O)[C@@H](C)N)c1 [Example 21D, N-(3-((R)—N-(D-alanyl)-S-methylsulfonimidoyl)phenyl)-3-((6-fluoro-2-methylpyridin-3-yl)oxy)-5-methyl-6-(trifluoromethyl)pyridazine-4-carboxamide]

IC50 [1]: 5 to 50 nM
IC50 [2]: 5 to 50 nM
SMILES: Cc1nc(F)ccc1Oc1nc(C(F)(F)F)c(Cl)c(C)c1C(=O)Nc1ccc(F)c([S@@](C)(=N)=O)c1 [Example 94C]

IC50 [1]: < 5 nM
IC50 [2]: < 5 nM
SMILES: Cc1nc(F)ccc1Oc1nc(C(F)(F)F)c(Cl)c(C)c1C(=O)Nc1cccc([S@](C)(=N)=O)c1 [Example 35C, (R)-5-chloro-2-((6-fluoro-2-methylpyridin-3-yl)oxy)-4-methyl-N-(3-(S-methylsulfonimidoyl)phenyl)-6-(trifluoromethyl)nicotinamide]

IC50 [7]: < 5 nM
IC50 [8]: < 5 nM
SMILES: Cc1nc(F)ccc1Oc1cc(C(F)(F)F)c(Cl)cc1C(=O)Nc1cccc([S@@](C)(=O)=NC(=O)C(C)(C)N)c1 [Example 7B, (R)—N-(3-(N-(2-amino-2-methylpropanoyl)-S-methylsulfonimidoyl)phenyl)-5-chloro-2-((6-fluoro-2-methylpyridin-3-yl)oxy)-4-(trifluoromethyl)benzamide]

IC50 [1]: 5 to 50 nM
IC50 [2]: 5 to 50 nM
SMILES: Cc1nc(F)ccc1Oc1ncc(C(F)(F)F)c(C)c1C(=O)Nc1ccnc([S@](C)(=N)=O)c1 (single isomer, unassigned) [Example 11C]

IC50 [7]: < 5 nM
IC50 [8]: < 5 nM
SMILES: Cc1nc(F)ccc1Oc1cc(C(F)(F)F)ccc1C(=O)Nc1cccc([S@@](C)(=O)=NC(=O)[C@@H](C)N)c1 [Example 9B, N-(3-((R)—N-(D-alanyl)-S-methylsulfonimidoyl)phenyl)-2-((6-fluoro-2-methylpyridin-3-yl)oxy)-4-(trifluoromethyl)benzamide]

IC50 [5]: < 5 nM
IC50 [6]: < 5 nM
SMILES: Cc1nc(F)ccc1Oc1cc(C(F)(F)F)c(Cl)c(C)c1C(=O)Nc1ccnc(C(N)=O)c1 [Example 62A]
